Data published in PMC6925144, “A prospective compound screening contest identified broader inhibitors for Sirtuin 1” (Scientific Reports, 2019).
Where two headings read alike, the source gives them in different places. Ends that are not written are not given here.

Legend:
human SIRT1 [1] = biological target: T1, human SIRT1 (Homo sapiens, UniProt Q96EB6); assay: SIRT-Glo luminogenic enzymatic inhibitory assay (inhibition rate and IC50); format: biochemical
T1 construct: host or cells: Escherichia coli M15
T1 sequence (Q96EB6 with tags, fused parts or gaps): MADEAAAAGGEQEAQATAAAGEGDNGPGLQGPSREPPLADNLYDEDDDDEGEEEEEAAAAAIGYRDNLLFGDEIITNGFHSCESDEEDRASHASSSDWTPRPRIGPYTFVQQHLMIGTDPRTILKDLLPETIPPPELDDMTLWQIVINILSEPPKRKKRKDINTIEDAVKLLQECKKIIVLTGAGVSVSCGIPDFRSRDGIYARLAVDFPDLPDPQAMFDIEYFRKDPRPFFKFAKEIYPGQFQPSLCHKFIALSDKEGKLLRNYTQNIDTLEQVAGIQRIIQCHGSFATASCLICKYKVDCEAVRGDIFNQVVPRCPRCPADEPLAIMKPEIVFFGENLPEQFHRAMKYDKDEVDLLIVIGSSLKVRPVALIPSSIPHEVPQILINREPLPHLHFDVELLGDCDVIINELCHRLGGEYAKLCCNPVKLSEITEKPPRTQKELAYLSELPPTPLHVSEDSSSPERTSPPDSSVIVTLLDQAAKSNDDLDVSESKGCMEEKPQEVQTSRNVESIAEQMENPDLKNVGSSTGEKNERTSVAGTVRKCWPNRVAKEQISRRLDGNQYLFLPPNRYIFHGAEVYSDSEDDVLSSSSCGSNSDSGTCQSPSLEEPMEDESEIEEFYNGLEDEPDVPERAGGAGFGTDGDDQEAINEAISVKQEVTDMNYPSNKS
Protocol: Note that the inhibitory assay was conducted with NAD^+.
Biochemical enzymatic assay for SIRT1
Luminogenic SIRT-Glo™ assay kit was purchased from Promega Corp. (Madison, WI; USA,
Enzymatic activity of SIRT1 in the presence of test compounds
the SIRT-Glo™ assay according to the manufacturer’s instructions (Promega Technical Manual for
SIRT-Glo™ Assay and Screening System). Briefly, the enzymatic reactions were performed in assay
SIRT1 was added to 3 ng/µL concentration to the wells containing tested compounds diluted in the
DMSO concentration) and the reactions (9 µL per well) were pre-incubated for 30 min at ambient
The enzymatic reactions were started by adding 9 µL of SIRT-Glo™
reagent (proprietary composition undisclosed by the vendor) to each assay well.
vigorous mixing using VibraTranslator (Union Scientific, USA) to ensure homogeneity, the plate
was incubated at the ambient temperature for 40 min. The final reaction volumes per well of a
384-well plate were 18 µL (1.5 ng/µL SIRT1: 20 nM). Luminescence signals were measured using
Omega PolarStar microplate reader (BMG Labtech, Ortenberg, Germany). Luminescence values
from the control plate wells with no added enzyme were used as a baseline.
The eight-point IC50 curve was built using 3x serial dilution
Primary compound dilutions were performed
in DMSO and each concentration was tested in quadruplicate. Assay data was analyzed in GraphPad
Prism,6 using Prism's built-in sigmoidal dose-response curve-fit algorithm and default settings of the
fit. Each error bar represents a standard deviation (SD) of inhibition rates for each concentration.
Dose-response curve (DRC) for SIRT1 inhibition by 20 compounds under SIRT-Glo™
assay conditions described in Section C of this supporting information. The determined IC50 value
The eight-point IC50 curves were built using 3x serial
dilution starting from compound concentration of 100 μM. Primary compound dilutions were
performed in DMSO and each concentration was tested in quadruplicate. Assay data was analyzed in
GraphPad Prism,6 using Prism's built-in sigmoidal dose-response curve-fit algorithm and default
Each bar represents a standard deviation (SD) of inhibition rates for each concentration.

Sirtuin 1 = conditions: cited from earlier work
human SIRT1 [2] = biological target: T1, human SIRT1; assay: Thermal shift assay (TSA) of Sirtuin 1 without NAD+; format: binding; set-up: TSA(without NAD+) Primary screening (TSA) TmD (K): unit not given here; conditions: for ΔTm, additional TSA experiment: n = 4; for thermal shift in SIRT1 melting curves, separate additions: separate additions of H3K9 (120 µM) or NAD+ (500 µM)
Protocol: (§1) A total of 3,192 compounds extracted from the proposed lists were first screened by thermal shift assay (TSA), which determined a melting temperature shift (ΔTm) of Sirtuin 1 upon the addition of a test compound at a concentration of 10 µM (n = 1) with primary hit criteria of ΔTm > 0.45 K or ΔTm < −1.5 K. Primary hits (48 compounds) were retested in the same assay at three concentrations (5, 10, 20 µM, n = 4) for hit confirmation and for dose-dependency check. Secondary hits (41 compounds) were checked their selectivity for Sirtuin 1 based on counterscreening on unrelated protein targets (bovine carbonic anhydrase (CA) and recombinant SH2 domain of hABL1 kinase (ABL1)) at three different concentrations (5, 10, 20 µM, n = 4), which yielded 38 hit compounds, hereafter referred to as TSA hits. The TSA screening above was conducted in the absence of NAD^+. As noted, the structure of Sirtuin 1 is different in the presence of NAD^+ and substrate. The chemical profile of TSA hits found from the different conditions could be different. […] As a result, 39 TSA hits were found. Regardless of the presence of NAD^+, 29 compounds were shared in both TSA hits.
B. Setup and validation of Protein Thermal Shift Assay.
All tested compounds were obtained from the screening compound collection of Enamine Ltd.
(Kiev, Ukraine). Stock solutions of the tested compounds were prepared at 10 mM in 100% DMSO and were stored at −20 °C until use. All thermal shift assay (TSA) experiments with SIRT1 protein were performed using ViiA™7 real-time PCR System equipped with 384-well heat block (Applied Biosystems, USA). General TSA methodology was adopted from the literature3-5 and experimentally modified in order to optimize conditions for measuring SIRT1 melting temperature shifts upon interaction with small molecules. To define the optimal buffer composition for the TSA procedure, a matrix of common buffers combined on a 96-well plate (Figure S3) was tested in thermal melt experiment on a 384-well plate (each buffer composition in quadruplicate). In addition, each buffer composition shown on Figure S3 was tested at two different buffering component concentrations, as listed in Table S1, resulting in two 384-well plate buffer screening experiments and the total of 192 different buffer compositions tested.
Figure S3. Matrix plate of the buffer compositions assessed for TSA optimization.
(1 picture or pasted object on this page, not shown here)
(§2) Table S1. Buffer concentrations used for preparing buffer composition matrix screening plates.
(§3) Buffer Plate 1 (mM) Plate 2 (mM)
(§4) Selection of the optimal buffer composition was based on balancing several criteria including undistorted protein melting curve, maximized melting temperature stability of SIRT1 protein and maximized melting temperature shift induced by the acetylated histone H3K9 peptide (KQTARK(Ac)STGG, a natural substrate of SIRT1). Thermal shift experiments were done at 120 µM H3K9 in the presence of 500 µM NAD+, a co-factor of SIRT1. Separate additions of H3K9 or […]
result, the buffer consisting of 20 mM Tris-HCl pH 8 and 50 mM NaCl was selected for the screening. Purified SIRT1 protein was pre-mixed with SYPRO Orange dye (Thermo Fischer Scientific, Cat. S6650, 5000x stock) to prepare a master mix at 400 µg/mL protein and 10x dye concentration. Tested compounds were added to the protein-dye master mix at 10 µM (1% final DMSO concentration) and incubated for 1 h at 4 °C in MicroAmp® optical 384-well reaction plates (ThermoFisher, Cat. 4309849) sealed with optical sealing film (ThermalSeal RT2, Excel Scientific, Cat. TS-RT2). The volumes of all reaction mixtures were 10 µL (4 µg SIRT1 per well). The reaction plates were then kept at ambient temperature (22-24 °C) for additional 15 minutes to ensure protein-compound interactions. Thermal scanning was performed by raising temperature to 35 °C at 1.6 °C/min without signal detection followed by 35 °C to 75 °C temperature ramp at 0.05 °C/s with […]

human SIRT1 [3] = biological target: T1, human SIRT1; assay: Thermal shift assay (TSA) of Sirtuin 1 in the presence of NAD+; format: binding; conditions: for ΔTm at 10 µM: n = 1, read-out: TSA(with NAD+) Primary screening (TSA) delta Tm (K); for ΔTm, additional TSA experiment: with NAD+, n = 4
Protocol: as §1, §2, §3, §4
result, the buffer consisting of 20 mM Tris-HCl pH 8 and 50 mM NaCl was selected for the screening. Purified SIRT1 protein was pre-mixed with SYPRO Orange dye (Thermo Fischer Scientific, Cat. S6650, 5000x stock) to prepare a master mix at 400 µg/mL protein and 10x dye concentration. Tested compounds were added to the protein-dye master mix at 10 µM (1% final DMSO concentration) and incubated for 1 h at 4 °C in MicroAmp® optical 384-well reaction plates (ThermoFisher, Cat. 4309849) sealed with optical sealing film (ThermalSeal RT2, Excel Scientific, Cat. TS-RT2). The volumes of all reaction mixtures were 10 µL (4 µg SIRT1 per well). The reaction plates were then kept at ambient temperature (22-24 °C) for additional 15 minutes to ensure protein-compound interactions. Thermal scanning was performed by raising temperature to 35 °C at 1.6 °C/min without signal detection followed by 35 °C to 75 °C temperature ramp at 0.05 °C/s with constant fluorescence intensity reading at 1 sec intervals using EX470/EM623 nm filter set. Primary screening of the whole test set of 3,192 compounds was carried out in singletons. The raw data of dye fluorescence intensity change upon protein melt were exported using the ViiA7 RUO software (Applied Biosystems/ThermoFischer Scientific). Further data visualization, curve fitting, melting temperature calculations on the raw fluorescence data were performed using custom-made Microsoft Excel scripts developed by us. The peak of the first derivative for the fluorescence curve was used to define melting temperature (Tm). Averaged Tm values for the control wells (64 wells per plate), containing only the protein, dye and 1% DMSO were used as a reference point to determine melting temperature shifts (ΔTm). Hit selection criteria was ΔTm > 0.45 °C or ΔTm < −1.5 °C. All primary hits were re-tested in the same assay at 3 concentrations (20, 10 and 5 µM, n = 4) for hit confirmation

[4] = test system: bovine carbonic anhydrase (CA); assay: TSA counterscreening on unrelated protein, carbonic anhydrase; format: binding; conditions: for ΔTm CA: without NAD+
Protocol: as §1

[5] = biological target: T2, recombinant SH2 domain of hABL1 kinase (ABL1) (Homo sapiens, UniProt P00519); assay: TSA counterscreening on unrelated protein, ABL1 SH2 domain; format: binding; conditions: without NAD+
T2 construct: recombinant SH2 domain of hABL1 kinase (ABL1)
T2 sequence (P00519 127-217 limits assumed): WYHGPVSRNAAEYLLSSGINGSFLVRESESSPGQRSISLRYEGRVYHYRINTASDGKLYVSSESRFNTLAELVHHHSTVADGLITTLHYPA
Protocol: as §1

[6] = final Sirtuin 1 concentration 20 nM, n = 4, read-out: IC50
[7] = 10 µM, n = 1, read-out: TSA(without NAD+) Primary screening (TSA) delta Tm (K)
[8] = 10 μM, without NAD+, read-out: ΔTm Sirtuin 1

Cc1ccc(C(=O)Nc2nc3ccc(NS(=O)(=O)c4ccc5c(c4)CCC(=O)N5)cc3s2)s1 [Compound Z605844126]
IC50 (human SIRT1 [1]; [6]): 15 µM

CC(C)(C)NS(=O)(=O)c1ccc2c(c1)Nc1ccccc1CC2 [CHEMBL3222149]
Inh. rate@100 μM (Sirtuin 1; 100 μM): 0.65 (Inh. rate@100 μM = 10%)[72]

O=c1[nH]c2ccc(S(=O)(=O)NCc3cc4ccccc4[nH]3)cc2[nH]1 [Compound Z1003449802]
TSA(without NAD+) Primary screening (TSA) TmD (K) (human SIRT1 [2]; 10 µM, n = 1): 49.54
ΔTm at 10 µM (human SIRT1 [2]; [7]): -0.07 °C
ΔTm at 10 µM (human SIRT1 [3]): 0.68 °C
TSA(with NAD+) Counter Screening (Carbonic anhydrase AND Abl kinase SH2 domain) Good/Bad ([4]; combined verdict on CA and Abl SH2, TSA flow with NAD+): Bad

O=C1NC(=S)NC(=O)C1=Cc1cn(-c2ccccc2)nc1-c1cc2ccccc2o1 [Compound Z62466600]
ΔTm at 5 µM (human SIRT1 [2]; without NAD+): 0.2 °C
ΔTm at 10 µM (human SIRT1 [2]; [8]): 0.3 °C
ΔTm at 20 µM (human SIRT1 [2]; without NAD+): 0.5 °C
ΔTm, additional TSA experiment (human SIRT1 [2]; without NAD+): 0.87 K
ΔTm CA ([4]; 5 μM): 0.0 K
ΔTm CA ([4]; 10 μM): 0.0 K
ΔTm CA ([4]; 20 μM): 0.0 K
ΔTm at 5 µM [5]: -0.2 °C
ΔTm at 10 µM [5]: 0.1 °C
ΔTm at 20 µM [5]: 0 °C
IC50 (human SIRT1 [1]): 7.1 µM

O=C1/C(=C\c2cc(Br)cc(Br)c2O)CC/C1=C\c1cc(Br)cc(Br)c1O [Compound Z56773446]
ΔTm at 5 µM (human SIRT1 [2]; without NAD+): 0.4 °C
ΔTm at 10 µM (human SIRT1 [2]; [8]): 0.6 °C
ΔTm at 20 µM (human SIRT1 [2]; without NAD+): 1 °C
ΔTm, additional TSA experiment (human SIRT1 [3]): −0.05 K
ΔTm CA ([4]; 5 μM): 0.2 K
ΔTm CA ([4]; 10 μM): 0.5 K
ΔTm CA ([4]; 20 μM): 0.5 K
ΔTm at 5 µM [5]: 0 °C
ΔTm at 10 µM [5]: 0.1 °C
ΔTm at 20 µM [5]: 0.2 °C
IC50 (human SIRT1 [1]; [6]): 4.1 µM

CCNc1ncnc2cc(C(N)=O)sc12 [CHEMBL2332048]
IC50 (Sirtuin 1): > 50 µM

COc1ccc(NC(=O)CSc2nnc(Nc3ccc(SC(F)F)cc3)s2)cc1OC [Compound Z21813138]
ΔTm, additional TSA experiment (human SIRT1 [3]): 0.32 K
IC50 (human SIRT1 [1]; [6]): 7.7 µM

Cc1nc(-c2ccc(CCNC(=O)c3ccc(NC(=O)c4cccs4)cc3)s2)cs1 [Compound Z165049452]
IC50 (human SIRT1 [1]; [6]): 12 µM

histone H3K9 peptide: acetylated histone H3K9 peptide (KQTARK(Ac)STGG, a natural substrate of SIRT1) (UniProt P68431 5-14, looked up, fragment) [reference compound]
thermal shift in SIRT1 melting curves, separate additions (human SIRT1 [2]): did not cause any thermal shift
Peptide induced thermal shift (human SIRT1 [3]; 120 µM H3K9 in the presence of 500 µM NAD+): +1.2 °C

COc1ccc(CNCc2c(-c3nnc(SC(C)C)n3-c3ccccc3)n(C)c3ccc(F)cc23)cc1 [CHEMBL2436120]
Inh. rate@40 μM (Sirtuin 1; 40 μM): 0.65 (Inh. rate@40 μM: 70%)[70]

CC1(C)CC(=O)C2=C(C1)N(NC(=O)c1ccncc1)C1=C(C(=O)CC(C)(C)C1)C2c1ccccc1OCc1ccccc1 [CHEMBL1762050]
Inh. rate@50 μM (Sirtuin 1; 50 μM): 0.60 (Inh. rate@50 μM = 70%)[71]

CC(Nc1ccc2nnnn2n1)c1ccc(Oc2ccccc2)cc1 (stereo not shown) [Compound Z1002316132]
TSA(without NAD+) Primary screening (TSA) TmD (K) (human SIRT1 [2]; 10 µM, n = 1): 49.54
ΔTm at 10 µM (human SIRT1 [2]; [7]): -0.05 °C
ΔTm at 10 µM (human SIRT1 [3]): 0.09 °C

NCc1nc2c(cnn2-c2ccccc2)c(=O)[nH]1 [Compound Z235344735]
IC50 (human SIRT1 [1]; [6]): 7.6 µM

O=C1NC(=O)c2ccccc2/C1=C\NNC(=O)C12CC3CC(CC(C3)C1)C2 [Compound Z165047618]
ΔTm, additional TSA experiment (human SIRT1 [2]; without NAD+): −0.03 K
IC50 (human SIRT1 [1]; final Sirtuin 1 concentration 30 nM (compounds marked *), n = 4, read-out: IC50): 13 µM

NC(=O)c1ccc[n+]([C@@H]2O[C@H](COP(=O)([O-])OP(=O)(O)OC[C@H]3O[C@@H](n4cnc5c(N)ncnc54)[C@H](O)[C@@H]3O)[C@@H](O)[C@H]2O)c1 [NAD+, nicotinamide adenine dinucleotide]
thermal shift in SIRT1 melting curves, separate additions (human SIRT1 [2]): did not cause any thermal shift

Cc1ccc(C(CNC(=O)c2ccc(C(N)=O)cc2)N2CCCC2)o1 (stereo not shown) [Compound Z1001367730]
TSA(without NAD+) Primary screening (TSA) TmD (K) (human SIRT1 [2]; 10 µM, n = 1): 49.64
ΔTm at 10 µM (human SIRT1 [2]; [7]): -0.08 °C
ΔTm at 10 µM (human SIRT1 [3]): -0.11 °C
